In ChEMBL document CHEMBL1201862, “PubChem BioAssay data set” (2004):
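Briefly, cells in 96-well plates were exposed to five compound concentrations for 48 h, and endpoints were estimated by linear interpolation. GI50 marks 50% less growth.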 Activity calls are given as the source filed them. Rule as the data show it: active = GI50 up to about 1.1 µM and inactive = higher. Where a SMILES comes first, the peptide text is derived from it. [ ]: non-standard residue; d: D form. The star is where a group is joined. ξ: configuration not given here. ξD = NC(CC(=O)O)C(=O)O; Boc = CC(C)(C)OC(=O)*; Aib = CC(C)(N)C(=O)O; OBn = c1ccc(CO*)cc1

Columns and labels:
Experiment in all cases: inhibition of tumour cell growth, NCI panel, 48 h
ACHN = system: ACHN
CCRF-CEM = system: CCRF-CEM
COLO 205 = system: COLO 205
EKVX = system: EKVX
HOP-62 = system: HOP-62
HOP-92 = system: HOP-92
KM12 = system: KM12
M14 = system: M14
MCF7 = system: MCF7
MOLT-4 = system: MOLT-4
NCI-H23 = system: NCI-H23
NCI-H522 = system: NCI-H522
NCI/ADR-RES = system: NCI/ADR-RES
SF-295 = system: SF-295
SK-MEL-5 = system: SK-MEL-5
SNB-19 = system: SNB-19
UACC-257 = system: UACC-257
UACC-62 = system: UACC-62
HCC 2998 = system: HCC 2998
SNB-75 = system: SNB-75

Compound	GI50 (ACHN)	GI50 (CCRF-CEM)	GI50 (COLO 205)	GI50 (EKVX)	GI50 (HOP-62)	GI50 (HOP-92)	GI50 (KM12)	GI50 (M14)	GI50 (MCF7)	GI50 (MOLT-4)	GI50 (NCI-H23)	GI50 (NCI-H522)	GI50 (NCI/ADR-RES)	GI50 (SF-295)	GI50 (SK-MEL-5)	GI50 (SNB-19)	GI50 (UACC-257)	GI50 (UACC-62)	GI50 (HCC 2998)	GI50 (SNB-75)
C=C1CC[C@@]2(C)[C@@H]([C@@H]1C)[C@H]1CC[C@@H]3[C@@]4(C)CC[C@H](O)C(C)(C)[C@@H]4CC[C@@]3(C)[C@]1(C)C[C@@H]2O	2.11 µM (inactive)	5.83 µM (inactive)	4.23 µM (inactive)	3 µM (inactive)	2.24 µM (inactive)	1.99 µM (inactive)	3.65 µM (inactive)	4.66 µM (inactive)	2.13 µM (inactive)	3.22 µM (inactive)	2.48 µM (inactive)	1.95 µM (inactive)	3.27 µM (inactive)	3.49 µM (inactive)	5.16 µM (inactive)	2.32 µM (inactive)	8.07 µM (inactive)	7.45 µM (inactive)	–	–
COc1c2occc2c(OC)c2c(=O)c(S(=O)(=O)NC(=O)Nc3ccc(Cl)cc3)coc12	> 10 µM (inactive)	> 10 µM (inactive)	> 10 µM (inactive)	> 10 µM (inactive)	> 10 µM (inactive)	> 10 µM (inactive)	> 10 µM (inactive)	> 10 µM (inactive)	> 10 µM (inactive)	> 10 µM (inactive)	> 10 µM (inactive)	> 10 µM (inactive)	> 10 µM (inactive)	> 10 µM (inactive)	> 10 µM (inactive)	> 10 µM (inactive)	> 10 µM (inactive)	> 10 µM (inactive)	> 10 µM (inactive)	–
CCOC(=O)/C=C(/C(=O)OCC)n1c(=O)c(C)cn(C2CC(N=[N+]=[N-])C(CO)O2)c1=O (centres undefined)	32.9 µM (inactive)	–	14.5 µM (inactive)	28.1 µM (inactive)	59.7 µM (inactive)	30.8 µM (inactive)	50.1 µM (inactive)	26.4 µM (inactive)	19.8 µM (inactive)	< 0.01 µM (active)	34 µM (inactive)	20.7 µM (inactive)	> 100 µM (inactive)	79.6 µM (inactive)	–	> 100 µM (inactive)	22.1 µM (inactive)	85.9 µM (inactive)	16.4 µM (inactive)	56.9 µM (inactive)
CC(C)(C)OC(=O)NC(CC(=O)OCc1ccccc1)C(=O)NC(C)(C)C(N)=O (centres undefined) (Boc-[ξD](OBn)-[Aib]-NH2)	> 100 µM (inactive)	> 100 µM (inactive)	> 100 µM (inactive)	> 100 µM (inactive)	> 100 µM (inactive)	> 100 µM (inactive)	> 100 µM (inactive)	> 100 µM (inactive)	> 100 µM (inactive)	> 100 µM (inactive)	> 100 µM (inactive)	> 100 µM (inactive)	> 100 µM (inactive)	> 100 µM (inactive)	> 100 µM (inactive)	> 100 µM (inactive)	> 100 µM (inactive)	0.0204 µM (active)	–	> 100 µM (inactive)
COC(=O)C(Cc1ccc(Oc2cc(CC(NC(=O)c3ccccc3)C(=O)OC)ccc2OC)cc1)NC(=O)c1ccccc1 (centres undefined)	6.82 µM (inactive)	–	27 µM (inactive)	29.8 µM (inactive)	38.3 µM (inactive)	21.6 µM (inactive)	37.5 µM (inactive)	6.95 µM (inactive)	16.6 µM (inactive)	0.948 µM (active)	22.9 µM (inactive)	7.29 µM (inactive)	35.2 µM (inactive)	> 77.6 µM (inactive)	18.2 µM (inactive)	35.5 µM (inactive)	7.35 µM (inactive)	17.9 µM (inactive)	13.5 µM (inactive)	29.7 µM (inactive)
COc1cc(/C=C(\C#N)c2ccccn2)cc(Br)c1O	97.7 µM (inactive)	31.3 µM (inactive)	35.5 µM (inactive)	97.5 µM (inactive)	28.8 µM (inactive)	–	36.1 µM (inactive)	34.2 µM (inactive)	24.4 µM (inactive)	35 µM (inactive)	31 µM (inactive)	27.5 µM (inactive)	20.9 µM (inactive)	37.8 µM (inactive)	40.1 µM (inactive)	39 µM (inactive)	48.8 µM (inactive)	55.7 µM (inactive)	36.8 µM (inactive)	37 µM (inactive)
O=C(CCC(=O)c1ccsc1)c1ccsc1	> 100 µM (inactive)	–	> 100 µM (inactive)	–	> 100 µM (inactive)	> 100 µM (inactive)	> 100 µM (inactive)	> 100 µM (inactive)	74.8 µM (inactive)	> 100 µM (inactive)	> 100 µM (inactive)	> 100 µM (inactive)	> 100 µM (inactive)	> 100 µM (inactive)	> 100 µM (inactive)	> 100 µM (inactive)	> 100 µM (inactive)	> 100 µM (inactive)	> 100 µM (inactive)	> 100 µM (inactive)
COc1ccc(C(=O)c2sc(Nc3ccccc3)nc2N)cc1	> 100 µM (inactive)	1.17 µM (inactive)	–	60.5 µM (inactive)	21 µM (inactive)	50.1 µM (inactive)	–	> 100 µM (inactive)	4.9 µM (inactive)	2.16 µM (inactive)	> 100 µM (inactive)	6.82 µM (inactive)	> 100 µM (inactive)	32.4 µM (inactive)	> 100 µM (inactive)	22.7 µM (inactive)	> 100 µM (inactive)	> 100 µM (inactive)	> 100 µM (inactive)	–
CC(=O)N1c2ccccc2C(C)C1c1[nH]c2ccccc2c1C (centres undefined)	32.3 µM (inactive)	25.6 µM (inactive)	13.5 µM (inactive)	18.1 µM (inactive)	19.2 µM (inactive)	–	16.1 µM (inactive)	18.7 µM (inactive)	28.1 µM (inactive)	19.7 µM (inactive)	23.8 µM (inactive)	15.9 µM (inactive)	24.1 µM (inactive)	15 µM (inactive)	13.7 µM (inactive)	31.6 µM (inactive)	18.1 µM (inactive)	18.4 µM (inactive)	16.3 µM (inactive)	19.8 µM (inactive)
Fc1ccc(C(=C2CCN(CCc3ccc4[nH]c(=S)[nH]c4c3)CC2)c2ccc(F)cc2)cc1	8.83 µM (inactive)	2.01 µM (inactive)	1.72 µM (inactive)	3.51 µM (inactive)	15.8 µM (inactive)	2.62 µM (inactive)	6.47 µM (inactive)	1.83 µM (inactive)	2.21 µM (inactive)	3 µM (inactive)	5.02 µM (inactive)	1.52 µM (inactive)	8.59 µM (inactive)	6.92 µM (inactive)	1.84 µM (inactive)	12.4 µM (inactive)	–	5.32 µM (inactive)	–	2.92 µM (inactive)
O=[N+]([O-])c1ccc(/C=N/n2c(S)nnc2CCc2nnc(S)n2/N=C/c2ccc([N+](=O)[O-])o2)o1	23.1 µM (inactive)	20 µM (inactive)	–	> 100 µM (inactive)	24 µM (inactive)	17.2 µM (inactive)	22.8 µM (inactive)	19.2 µM (inactive)	18.1 µM (inactive)	24.8 µM (inactive)	16.7 µM (inactive)	22.2 µM (inactive)	23.8 µM (inactive)	> 100 µM (inactive)	17.3 µM (inactive)	–	22.4 µM (inactive)	–	17.6 µM (inactive)	–
c1ccc(N/N=N/c2ccc(-c3nc4ccccc4o3)cc2)nc1	52.2 µM (inactive)	–	20.6 µM (inactive)	29.9 µM (inactive)	55.8 µM (inactive)	54.6 µM (inactive)	37.8 µM (inactive)	60.7 µM (inactive)	35.6 µM (inactive)	21.6 µM (inactive)	34 µM (inactive)	43 µM (inactive)	35.4 µM (inactive)	–	16.2 µM (inactive)	75.2 µM (inactive)	29.7 µM (inactive)	40.8 µM (inactive)	20 µM (inactive)	20.4 µM (inactive)
N=C(N)NCCCC(=O)O	> 100 µM (inactive)	> 100 µM (inactive)	> 100 µM (inactive)	> 100 µM (inactive)	> 100 µM (inactive)	> 100 µM (inactive)	> 100 µM (inactive)	> 100 µM (inactive)	> 100 µM (inactive)	> 100 µM (inactive)	> 100 µM (inactive)	> 100 µM (inactive)	> 100 µM (inactive)	> 100 µM (inactive)	> 100 µM (inactive)	> 100 µM (inactive)	–	> 100 µM (inactive)	–	> 100 µM (inactive)
OC1(c2ccc3ccccc3c2)c2c(c3ccccc3c3ccccc23)C2=NCCN21 (centres undefined)	8.22 µM (inactive)	4.25 µM (inactive)	1.85 µM (inactive)	5.51 µM (inactive)	9.33 µM (inactive)	7.18 µM (inactive)	2.32 µM (inactive)	2.12 µM (inactive)	3.48 µM (inactive)	4.81 µM (inactive)	12.1 µM (inactive)	3.85 µM (inactive)	2.13 µM (inactive)	3.09 µM (inactive)	17 µM (inactive)	12.9 µM (inactive)	18.5 µM (inactive)	13.5 µM (inactive)	–	3.11 µM (inactive)
CC(C)c1ccc(/C(C(=O)O)=C(\O)C(=O)O)cc1	> 100 µM (inactive)	> 100 µM (inactive)	> 100 µM (inactive)	> 100 µM (inactive)	> 100 µM (inactive)	> 100 µM (inactive)	> 100 µM (inactive)	> 100 µM (inactive)	> 100 µM (inactive)	> 100 µM (inactive)	> 100 µM (inactive)	> 100 µM (inactive)	> 100 µM (inactive)	> 100 µM (inactive)	> 100 µM (inactive)	> 100 µM (inactive)	> 100 µM (inactive)	> 100 µM (inactive)	–	> 100 µM (inactive)
